From patent US20180016304A1, “SELF-ASSEMBLING ULTRASHORT ALIPHATIC DEPSIPEPTIDES FOR BIOMEDICAL APPLICATIONS” (Agency for Science, Technology and Research, priority 2015, published 2018)
Like-named read-outs stand apart in the source and are kept apart here. Where a SMILES comes first, the peptide text is derived from it.

What was measured:
[1] = tested on: human mesenchymal stem cells (hMSCs); assay: Cytocompatibility, WST-1 cell metabolic activity assay; assay type: cell-based; conditions: for cytocompatibility / tolerance: fragments particularly if the acidity was neutralized
Experimental: Human mesenchymal stem cells, hMSCs, were obtained from Lonza (Basel, Switzerland) and cultured in MSC growth medium (MSCGM) with 5% fetal bovine serum, 2% L-glutamine and 0.1% penicillin-streptomycin (Lonza). The cell metabolic activity was measured with the Cell Proliferation Reagent WST-1 assay (Roche Diagnostics, Mannheim, Germany). Briefly, 5000 hMSC cells were seeded in each well and media containing the sample was added to the desired concentration (n=6). After incubation for 72 hours at 37° C., the media was aspirated and media containing 10% WST-1 reagent added for 2 hours. The absorbance at 450 nm was measured subtracting the absorbance at 600 nm. The absorbance readings were further normalized against cells cultured in media containing an equivalent volume of PBS (i.e. 100% cell survival) to determine the percentage cell viability. Cells cultured with an equivalent volume of ethanol were used as a negative control (i.e. 100% cell death).
In order to determine depsipeptide cytotoxicity and effect on cell proliferation, human mesenchymal stem cells (hMSCs) were incubated with various concentrations of the depsipeptide and their metabolic activity and viability was tested after 3 days. Cell viability decreased with increasing depsipeptide concentration. […] To address concerns that the cytotoxicity could be attributed to the degradation products following hydrolysis of the ester bond, the possible degradation products, the peptide Ac-ILV and depsipeptide HO-aGK-NH2, were also evaluated.

[2] = Minimum gelation concentration / hydrogel formation; assay type: physicochemical
Experimental: In order to determine the minimum gelation concentration in water, the depsipeptide was dissolved in MilliQ water.
Liskamp reported depsipetides based on the amylin (20-29) structure.

[3] = 2 mg/mL in PBS
Experimental: In order to test the degradation ability of the depsipeptide, 2 mg/mL was dissolved in PBS puffer at pH 5.7, 7.3 and 8.5. All samples were incubated at 37° C. and analysed by HPLC-MS.
In order to characterize the degradation products of the depsipeptide Ac-ILV-OH and HO-aGK-NH2 were synthesized and the retention time was determined by HPLC-MS.

[4] = MilliQ water, depsipeptide sample left at room temperature

Question: With `CC[C@H](C)[C@H](NC(C)=O)C(=O)N[C@@H](CC(C)C)C(=O)N[C@H](C(=O)O)C(C)C` [Ac-ILV] (Ac-Ile-Leu-Val-OH) as the molecule, how does the cytocompatibility / tolerance ([1]; 3 days) read?
Answer: extremely well tolerated

Question: What does the source list for `CC(O)C(=O)NCC(=O)N[C@@H](CCCCN)C(N)=O` (some centres unmarked) [HO-aGK-NH2] (HELM PEPTIDE1{[CC(O)C(=O)[*:2]].G.K.[am]}$$$$V2.0)?
Answer: concentration at which significant cytotoxicity was demonstrated ([1]; 3 days, WST-1): > 10000 µg/mL; cytocompatibility / tolerance ([1]; 3 days): extremely well tolerated

Question: With `CC[C@H](C)[C@H](NC(C)=O)C(=O)N[C@@H](CC(C)C)C(=O)N[C@H](C(=O)OC(C)C(=O)NCC(=O)N[C@@H](CCCCN)C(N)=O)C(C)C` (some centres unmarked) [Ac-ILVaGK-NH2, Acetylated isoleucine-leucine-valine-lactic acid-glycine-lysine] (HELM PEPTIDE1{[ac].I.L.V.[CC(O[*:1])C(=O)[*:2]].G.K.[am]}$$$$V2.0) as the molecule, how does the hydrogel formation ([2]; 100 mg/mL dissolved in 90% water, 10% 10xPBS added) read?
Answer: instantaneous hydrogel formation

Question: What about the minimum gelation concentration [2, 4] of the same molecule?
Answer: 100 mg/mL

Question: What about the “minimum gelation concentration relative to parent peptide Ac-IK6-NH2” value ([2]; in water as well as in 1xPBS buffer) of the same molecule?
Answer: about 10 times

Question: What about the minimum gelation concentration ([2]; with PBS buffer added (1x PBS)) of the same molecule?
Answer: 60 mg/mL

Question: What about the “IC50 (cell viability)” value ([1]; 3 days (72 hours) incubation, WST-1) of the same molecule?
Answer: approximately 15 mg/mL

Question: And the “stability (degradation)” value ([3]; pH 5.7, 37° C., compared with pH 7.3 and 8.5)?
Answer: most

Question: And the “stability (degradation)” value ([3]; pH 8.5, 37° C., compared with pH 5.7 and 7.3)?
Answer: least stable

Question: Which minimum gelation concentration [2, 4] does the source give for “Ac-IK6-NH2: parent ultrashort self-assembling peptide Ac-ILVAGK-NH2, without α-hydroxy acid [reference compound]” here?
Answer: 10 mg/mL
